Data on five compounds can be found in US20250034116A1, “1,4-DIHETEROCYCLIC SUBSTITUTED AROMATIC RING OR AROMATIC HETEROCYCLIC COMPOUND AND USE THEREOF” (BeBetter Med Inc., priority 2022, published 2025).

pIC50: −log10 of the molar value. Read-outs that look alike come from different tables or passages of the source.

Series [1] is described as follows: Pharmacokinetic (PK) experiment, oral administration in rats. To be noted: 20 mg/kg; for AUC(0-inf) / Cmax / Tmax / half-life / AUC(0-t): male, SD, rat, plasma; for AUC(0-t): read-out: AUC0-24. It is filed as in vivo, Male SD rats. In outline:
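Fasted male SD rats (180-250 g) received 20 mg/kg orally in 30% sulfobutylether-β-cyclodextrin. Tail-vein blood sampled 15 min to 24 h post-dose into K2-EDTA; plasma protein-precipitated with acetonitrile containing internal standard and analysed by LC-MS/MS.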

The test system of series [2] is CYP enzymes in mouse liver microsomes (MLM). Nature of the series: Inhibition of 20-HETE production in mouse liver microsomes (MLM). It is filed as biochemical. In outline: (§1)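 Liver microsomes (human or mouse) or recombinant CYP4F2 or CYP4A11 in potassium phosphate buffer mixed with compound, then with 400 μM substrate solution (stock). After 10 min preincubation at 37 °C, reaction started with 6 mM NADPH solution (stock) and run 25 min at 37 °C. 20-HETE formation quantified by LC-MS/MS; IC50 from a four-parameter Hill fit, with percent inhibition also reported at 1000, 500 or 100 nM.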
Background: Liver microsomes are vesicles of endoplasmic reticulum, rich in cytochrome P450 enzymes.

The subject of series [3] is CYP enzymes in human liver microsomes (HLM). Nature of the series: Inhibition of 20-HETE production in human liver microsomes (HLM). It is filed as biochemical. In outline:
as §1

Series [4] deals with recombinant CYP4F2 (rCYP4F2) (Homo sapiens (Human), UniProt P78329). Nature of the series: Inhibition of 20-HETE production by recombinant CYP4F2. It is filed as biochemical. To be noted: for inhibition at 0.1 µM: read-out: rCYP4F2 (% inh @ 100 nM). On the procedure: (§2) Experimental principle: The inhibitory activity of 20-HETE production is evaluated by testing the inhibitory effects of the compound on human liver microsomes (HLM), rat liver microsomes (RLM), mouse liver microsomes (MLM), or […] CYP4 subtype enzymes (CYP4F2). This assay employs HLM, RLM, or MLM along with recombinant CYP4F2 (rCYP4F2) and recombinant CYP4A11 (rCYP4A11), which are […] CYP4 subtype enzymes, to detect the effects of the test compound at different concentrations on the metabolic rate of enzyme-specific substrates, to determine the inhibitory effects of the test compound on CYP enzymes in HLM, RLM, or MLM.
Chain of recombinant CYP4F2 (rCYP4F2) (P78329 5-520): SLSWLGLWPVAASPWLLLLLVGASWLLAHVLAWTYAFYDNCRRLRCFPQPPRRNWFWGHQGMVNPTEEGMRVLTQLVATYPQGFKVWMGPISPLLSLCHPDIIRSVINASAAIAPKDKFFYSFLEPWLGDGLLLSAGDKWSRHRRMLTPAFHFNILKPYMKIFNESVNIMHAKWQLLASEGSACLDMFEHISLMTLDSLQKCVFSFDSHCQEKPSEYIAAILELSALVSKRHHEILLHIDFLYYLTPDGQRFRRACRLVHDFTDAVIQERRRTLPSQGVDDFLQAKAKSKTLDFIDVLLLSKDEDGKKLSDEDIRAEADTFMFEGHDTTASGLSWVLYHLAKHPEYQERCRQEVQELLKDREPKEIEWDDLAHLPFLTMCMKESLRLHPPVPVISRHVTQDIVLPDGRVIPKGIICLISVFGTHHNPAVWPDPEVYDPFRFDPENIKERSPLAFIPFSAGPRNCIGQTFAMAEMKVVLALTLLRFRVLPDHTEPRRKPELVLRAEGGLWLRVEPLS
(§3) Experimental methods: Dissolve the test compound in DMSO, and subsequently dilute it with an acetonitrile and DMSO mixture (3:1). Add 2 μl of varying concentrations of the test compound and 100 μl of potassium phosphate buffer containing either liver microsomes or recombinant enzymes to a 96-well plate. After mixing well, transfer 30 μl to another well (in duplicate), add 15 μl of 400 μM substrate solution, and mix well again. Preheat at 37° C. for 10 minutes, and then add 15 μl of 6 mM NADPH and incubate at 37° C. for 25 minutes. After 25 minutes, add 160 μl of acetonitrile solution (containing 0.1 μg/ml internal standard) to stop the reaction. Mix well, centrifuge at 3500 g for 15 minutes, and then analyze the supernatant using LC-MS/MS.
(§4) Plot the compound concentration on the x-axis and the inhibition rate on the y-axis to draw the curve. Use GraphPad Prism 5 software to fit the curve and calculate the IC50. The formula is Y=Bottom+(Top−Bottom)/(1+10^((Log IC50−X)×HillSlope)). X represents the logarithmic concentration of the inhibitor, and Y represents the relative enzyme activity at a given inhibitor concentration (relative to the condition without the inhibitor).
(§5) Calculate the inhibition percentages at concentrations of 1000 nM, 500 nM, or 100 nM as well as the half-maximal inhibitory concentration (IC50) of the test compound from the above experiment.

The subject of series [5] is diet-induced obesity (DIO) mouse model. Briefly: Experiment 1: compound 1, weight loss and blood glucose lowering in DIO mouse model. It is filed as in vivo, Male C57BL/6J mice. On the procedure: Experiment 1 was to investigate the effects of compound 1 on weight loss and blood glucose lowering in a diet-induced obesity (DIO) mouse model. Male C57BL/6J mice were purchased from Zhuhai BST Biotechnology Co., Ltd. and housed in a barrier system animal facility. The animals were randomly divided into 3 groups: normal control group, DIO model control group, and DIO model compound 1 treatment group, with 6 animals per group. The treatment group received compound 1 orally at a dose of 100 mg/kg on the first day of high-fat diet (HFD) feeding, once daily for 32 consecutive days. Animal weights were measured weekly, and on day 33, they were fasted overnight but allowed access to water before an oral glucose tolerance test (OGTT).

Series [6] addresses recombinant CYP4A11 (rCYP4A11) (Homo sapiens (Human), UniProt Q02928). Nature of the series: Inhibition of 20-HETE production by recombinant CYP4A11. It is filed as biochemical. On the procedure:
as §2, §3, §4, §5

The subject of series [7] is CYP enzymes in rat liver microsomes (RLM). Briefly: Inhibition of 20-HETE production in rat liver microsomes (RLM). It is filed as biochemical. In outline:
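Test compounds were dissolved in DMSO, diluted in acetonitrile/DMSO (3:1), and 2 μl was mixed with 100 μl potassium phosphate buffer containing rat liver microsomes in a 96-well plate. Duplicate 30 μl aliquots received 15 μl of 400 μM substrate, were preheated at 37° C. for 10 minutes, then started with 15 μl of 6 mM NADPH for 25 minutes. LC-MS/MS measured 20-HETE formation.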

In series [8] the test system is diet-induced obesity (DIO) mouse model. Briefly: Experiment 2: compound 2 and 4, weight loss and blood glucose lowering in DIO mouse model. It is filed as in vivo, Male C57BL/6J mice. The source says:
Experiment 2 was to study the effects of compound 2 and 4 on weight loss and blood glucose lowering in a diet-induced obesity (DIO) mouse model. Male C57BL/6J mice were purchased from Zhuhai BST Biotechnology Co., Ltd. and housed in a barrier system animal facility. Animals were randomly divided into 4 groups: normal control group, DIO model control group, DIO model compound 2 treatment group, and DIO model compound 4 treatment group, with 4-5 animals per group. The model control group and treatment groups were first fed with high-fat diet (HFD) for 9 weeks (day 63), and then the treatment groups were orally administered with compound 2 or compound 4 at a dose of 50 mg/kg once daily for 4 consecutive weeks, while continuing to receive HFD. Animal weights were measured weekly, and on the last day of treatment, they were fasted overnight but allowed access to water before an oral glucose tolerance test (OGTT).

For series [9] the following is noted: cited from earlier work.
For series [10], the system named is Cyp4a 14−/− hypertensive mice. Particulars: Cyp4a14−/− hypertensive mice; cited from earlier work.
The next series deals with Cyp4a14−/− mice. Particulars: cited from earlier work.
The conditions of series [11]: cited from earlier work. The source holds these as a separate data set.
Series [12] has as its system cyclooxygenase and lipoxygenase. To be noted: cited from earlier work.
The next series concerns 20-HETE. To be noted: read-out: inhibitory activity (inhibitor of 20-HETE); cited from earlier work.
For series [13], the system named is diet-induced obesity (DIO) mouse model. Nature of the series: Experiment 4: weight loss of compound 2 compared with semaglutide in DIO mouse model. It is filed as in vivo, Male C57BL/6J mice. Particulars: 30 nmol/kg subcutaneously once daily. From the text: Experiment 4 was to compare the weight loss effects of compound 2 with that of semaglutide in a diet-induced obesity (DIO) mouse model. Male C57BL/6J mice were purchased from Vital River Laboratories (Shanghai) Co., Ltd. and housed in a barrier system animal facility. Animals were randomly divided into 4 groups: normal control group, DIO model control group, compound 2 treatment group, and semaglutide treatment group, with 6 animals per group. The model control group and treatment groups were first fed with high-fat diet (HFD) for 18 weeks, after which the treatment groups were administered with compound 2 or semaglutide, respectively. Compound 2 was administered orally at a dose of 30 mg/kg once daily for 14 consecutive weeks, while semaglutide was administered subcutaneously at a dose of 30 nmol/kg once daily. After 7 weeks of semaglutide treatment, the semaglutide treatment group was switched to compound 2 treatment for another 7 weeks.

[14] abbreviates: 50 mg/kg orally once daily for 4 weeks, DIO mice.

Chain of recombinant CYP4A11 (rCYP4A11) (Q02928 5-519): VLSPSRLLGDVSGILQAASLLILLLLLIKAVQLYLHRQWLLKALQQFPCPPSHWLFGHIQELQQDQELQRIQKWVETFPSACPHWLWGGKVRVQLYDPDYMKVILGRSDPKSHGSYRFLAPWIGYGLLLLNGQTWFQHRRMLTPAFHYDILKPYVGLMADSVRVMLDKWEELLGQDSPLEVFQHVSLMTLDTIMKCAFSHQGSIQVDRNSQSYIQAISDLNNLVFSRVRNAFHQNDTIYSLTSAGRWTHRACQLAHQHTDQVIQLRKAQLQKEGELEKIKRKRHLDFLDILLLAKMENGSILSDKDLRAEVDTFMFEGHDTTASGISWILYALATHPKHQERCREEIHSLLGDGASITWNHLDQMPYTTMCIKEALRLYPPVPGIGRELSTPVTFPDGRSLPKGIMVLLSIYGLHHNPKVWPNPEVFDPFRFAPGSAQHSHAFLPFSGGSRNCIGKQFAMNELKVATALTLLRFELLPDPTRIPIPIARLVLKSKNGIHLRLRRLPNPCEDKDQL

Usually AUC(0-inf) stands for the area under the concentration-time curve extrapolated to infinity. In general, Cmax refers to the maximum level reached in the sampled fluid or tissue. The Tmax is the time from dosing to the highest level. As a reminder, the half-life is the time in which the quantity being followed falls by half. In general, IC50 refers to the concentration that gives 50% inhibition. Regarding `O=C1CCCN1CC1CCN(c2ccc(-c3cn[nH]c3)cc2)CC1` [Compound 1, 1-((1-(4-(1H-pyrazol-4-yl)phenyl)piperidin-4-yl)methyl)pyrrolidin-2-one], in series [1], the “absorption and blood exposure after oral administration (in words)” value is “well absorbed and exhibit high blood exposure”; the AUC(0-inf) was 125000 ng·h/mL; the highest level (Cmax) was 9980 ng/mL; the Tmax was 1.5 h. For the same compound, in series [1], the half-life was 7.23 h and the AUC(0-t) turned out to be 113000 ng·h/mL. In addition, in series [2], the IC50 was found to be 1220 nM. For the same compound, the “HLM (% inh @ 500 nM)” value in [3] was determined as 79.83%. Moreover, in [4], the IC50 came to 24 nM and the inhibition at 0.1 µM is 59.5%. Besides, the body weight result in series [5] (100 mg/kg orally once daily for 32 days from first day of HFD) was “stabilized around the initial weight after 1 week and remained stable thereafter”. Moreover, in series [5] (100 mg/kg orally once daily for 32 days, DIO mice), the fasting blood glucose result is reported as “inhibit the increase in fasting blood glucose”. Moreover, the “glucose metabolism (OGTT)” value in series [5] (100 mg/kg orally once daily for 32 days, OGTT day 33) is “enhance glucose metabolism”. Besides, the inhibition at 0.1 µM in [6] (read-out: rCYP4A11 (% inh @ 100 nM)) was 35.4%. In series [7], the midpoint of inhibition, the IC50, lay at 224 nM and the “RLM (% inh @ 500 nM)” value stood at 54.99%.

For the compound `O=C1CCCN1CC1CCN(c2ccc(-c3cn[nH]c3)c(F)c2F)CC1` [Compound 4, 1-((1-(2,3-difluoro-4-(1H-pyrazol-4-yl)phenyl)piperidin-4-yl)methyl)pyrrolidin-2-one], in series [1], the “absorption and blood exposure after oral administration (in words)” value is “well absorbed and exhibit high blood exposure”; the AUC(0-inf) turned out to be 59000 ng·h/mL; the concentration peaked (Cmax) at 7260 ng/mL; the Tmax was 1.33 h. Also, in series [1], the half-life is 3.9 h and the AUC(0-t) was 58100 ng·h/mL. Moreover, half-maximal inhibition in series [2] (IC50) was put at 1350 nM. Moreover, in series [3], the IC50 amounted to 25.8 nM and the “HLM (% inh @ 500 nM)” value is 85.53%. Besides, in series [4], the IC50 stood at 18.8 nM and the inhibition at 0.1 µM came out at 61.7%. In addition, in series [8] (setting [14]), the fasting blood glucose entry is “inhibit the increase in fasting blood glucose” and the “glucose metabolism (OGTT)” value is given as “enhance glucose metabolism”. The “body weight decrease, of the pre-administration weight” value in [8] (50 mg/kg orally once daily, first week of administration, after 9 weeks HFD) was 12%-16%. In [6], the IC50 was 53.7 nM. In addition, in series [7], the IC50 worked out at 89.5 nM and the “RLM (% inh @ 500 nM)” value stood at 72.00%.

Take `COCCOCCOCCOCCOCCOCCOC(=O)CCCC/C=C\CCCCCCC/C=C\CCCCO` [Compound 20-SOLA]: the solubility entry in series [9] was “more water-soluble”. For the same compound, the blood pressure entry in [10] was “restore blood pressure to normal”. Also, in the series with Cyp4a14−/− mice, the hyperglycemia and hyperinsulinemia entry was “improve hyperglycemia and hyperinsulinemia”; the “weight gain induced by a high-fat diet” value is on record as “reduce the weight gain”.

For the compound `CCCCc1ccc(N=CNO)c(C)c1` [HET0016], in [9], the solubility result is “poor”. Besides, the half-life result in series [11] is given as “short”. In series [12], the “effect on the activity of cyclooxygenase and lipoxygenase” value is on record as “no effect”. Further, in the series with 20-HETE, the pIC50 was 8.05.

semaglutide [reference compound]: the “maximum weight-loss effect, decrease compared to the pre-treatment weight” value in [13] (after 2 weeks) is on record as “approximately 20%”. The “food intake, fraction of the model control group” value in series [13] (first 2 weeks) is “⅓ to ½”.
